US5137889A, “Dihydropyridine derivatives and process for preparing the same” (Otsuka Pharmaceutical Co., Ltd., priority 1983, dated 1992)

Experiments:
[1] = molecular target: T1, Cyclic-AMP phosphodiesterase (Bos taurus, UniProt P14100); assay: Cyclic AMP phosphodiesterase inhibitory activity (absence of calmodulin, EGTA in place of CaCl2); assay type: biochemical, bovine; settings: 1 mM EGTA in place of CaCl2; 3 hours
T1 construct: from tissue; host or cells: bovine heart, partially purified
Excerpt: (§1) (2) Calmodulin-dependent cyclic-AMP phosphodiesterase (EC 3.1.4.17): An enzyme substance isolated from the heart of bovine and purified partially by a method of modified version of the disclosure in H. C. Ho, T. S. Teo, et al.: "Biochim. Biophys. Acta", 429, 461 (1976).
(§2) (3) 5'-Nucleotidase (EC 3.1.3.5): Grade IV substance (isolated from Crotalus adamanteus venom) manufactured by Sigma & Co.
(§3) (4) Others: Remainder of the reagents used in the test were those of reagent grade chemicals manufactured by Wako Pure-Chemical Industries, Ltd.
(§4) Calmodulin inhibitory activity of each of the test compounds was measured by a method of modified version of the disclosure in T. S. Teo and T. H. Wang: "J. Bio. Chem.", 248, 588 (1973).
(§5) (3) 5'-Nucleotidase: One unit thereof hydrolyzes 1.0 micromole of inorganic phosphorus from adnosine 5'-monophosphate per minute at pH 9.0 at 37° C.
(2) Cyclic AMP phosphodiesterase inhibitory activity:
The reaction was conducted by a method similar to that described in (1) as mentioned above, except that 1 mM of EGTA [ethylene glycol-bis(β-amino ethyl ether)-N,N-tetraacetic acid] was used in place of 20 mM of CaCl2. The reaction was conducted for 3 hours.

[2] = molecular target: T2, Calmodulin-cyclic-AMP phosphodiesterase (Bos taurus, UniProt P62157); assay: Calmodulin-cyclic-AMP phosphodiesterase inhibitory activity (presence of calmodulin); assay type: biochemical, bovine; settings: with calmodulin and CaCl2, pH 7.0, 30° C., 30 minutes; for IC50: read-out: Calmodulin-cyclic-AMP phosphodiesterase IC50 (converted)
T2 construct: tissue Amano & Co. (calmodulin only); host or cells: phosphodiesterase: bovine heart, partially purified; calmodulin: bovine brain
Excerpt: (1) Calmodulin: A calmodulin product manufactured by Amano & Co., which was isolated from the brain of bovine, and purified so as to be considered as a single substance with respect to SDS-page (polyacrylamide gel electrophoresis) method.
as §1, §2, §3, §4
(2) Calmodulin: One unit thereof stimulates 0.015 activated unit of cyclic-AMP phosphodiesterase to 50% of the maximum activity of the enzyme.
as §5
(1) Calmodulin-cyclic-AMP phosphodiesterase inhibitory activity:
40 mM of Imidazol, 20 mM of MgCl2, 20 mM of CaC12, 0.008 unit of cyclic-AMP phosphodiesterase, 1.0 unit of calmodulin, 0.2 unit of 5'-nucleotidase and 1.0 ml of 10 mM-tris(hydroxymethyl)aminomethane/HCl buffer solution (pH 7.0) containing 0.5 mM of cyclic-AMP were mixed together, and reacted at 30° C. for 30 minutes. Each of the test compounds was dissolved in methanol or N,N-dimethylformamide as the solvent, provided that the quantity of the solvent was not exceed 2% of the total amount of the mixture. After the reaction was completed, the reaction mixture was ice-cooled, and 0.5 ml each of aqueous solutions of 16.5%-trichloroacetic acid, 1%-thiourea, 3%-ammonium ferrous sulfate were respectively added to the reaction mixture. Further, 0.15 ml of 4.4%-ammonium molibdate solution was added to the mixture and the whole of the mixture was stirred, and was centrifuged at 3,000 r.p.m. for 10 minutes. Then, the centrifuged mixture was allowed to stand at a room temperature for 20 minutes. The OD660 nm (optical density at 660 nm) was measured.

[3] = system: SHR-rats (spontaneously hypertensive rats); settings: 30 mg/kg p.o.
Experimental: Systolic blood pressures and heart beat of SHR-rats (spontaneously hypertensive rats) were determined by a "tail cuff method". Thus the test animal was placed in a thermostat chamber (Type: FR-12RS, manufactured by Isuze & Co.) and was warmed at 40° C. for 15 minutes so as to vasodilate the tail arteria, the systolic blood pressures were measured by an electro sphygmomanometer (Type: PE-300, manufactured by Narco-Biosystems, Inc.) and recorded by an ink-writing recorder (Type: RECTI-HORIZ 8s, manufactured by San-Ei Instrument & Co.). The experiments were conducted under non-anesthetized and semi-confinement conditions. The test compound was orally administered forcedly by using a sonde for oral administration. The test compound was suspended in 0.15%-gum arabic powder aqueous solution so as to make the quantity of the test compound to 2.5 ml/kg. The test animal was not fasted, and the systolic blood pressures (mm-Hg) were measured before the administration (hereinafter referred to as "PRE") and after the administration (8, 24, 30, 48, 54 and 72 hours after the administration) of the test compound. The data of systolic blood pressure measured before the administration are shown in absolute value of mmHg, and the data measured after the administration are shown in the differences from the absolute values.

T1 sequence (P14100 1-514 isoform P14100-2): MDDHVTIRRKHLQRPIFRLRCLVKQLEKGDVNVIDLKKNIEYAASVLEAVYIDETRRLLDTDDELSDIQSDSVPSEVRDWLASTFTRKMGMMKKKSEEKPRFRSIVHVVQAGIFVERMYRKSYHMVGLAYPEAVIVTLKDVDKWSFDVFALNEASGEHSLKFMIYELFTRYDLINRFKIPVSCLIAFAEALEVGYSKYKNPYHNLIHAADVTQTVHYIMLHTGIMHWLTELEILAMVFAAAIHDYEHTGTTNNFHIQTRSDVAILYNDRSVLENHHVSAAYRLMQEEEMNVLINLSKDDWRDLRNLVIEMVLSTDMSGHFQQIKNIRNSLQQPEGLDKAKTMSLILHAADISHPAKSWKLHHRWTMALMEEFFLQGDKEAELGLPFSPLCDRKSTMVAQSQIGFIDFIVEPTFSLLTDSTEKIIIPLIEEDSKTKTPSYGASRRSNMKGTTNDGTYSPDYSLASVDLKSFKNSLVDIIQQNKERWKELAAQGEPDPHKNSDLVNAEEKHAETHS

Row | Compound | IC50 [1] | IC50 [2] | Cyclic-AMP phosphodiesterase IC50 [1] | Blood pressure after the administration, 24 hours (difference from the absolute value before administration) [3] | Blood pressure after the administration, 30 hours (difference from the absolute value before administration) [3] | Blood pressure after the administration, 48 hours (difference from the absolute value before administration) [3] | Blood pressure after the administration, 54 hours (difference from the absolute value before administration) [3] | Calmodulin-cyclic-AMP phosphodiesterase IC50 [2] | Blood pressure after the administration, 72 hours (difference from the absolute value before administration) ([3]; 72 hours)
1 | COC(=O)C1=C(C)NC(C)=C(C(=O)OC/C=C/c2ccc(O)cc2)C1c1ccc(Cl)cc1Cl (centres unmarked) [Test Compound 24, Methyl 3-(4-hydroxyphenyl)-2(E)propenyl 1,4-dihydro-2,6-dimethyl-4-(2,4-dichloro-phenyl)pyridine-3,5-dicarboxylate] | 30.7 µM | 5.02 µM | – | – | – | – | – | – | –
2 | COC(=O)C1=C(C)NC(C)=C(C(=O)OC/C=C/c2cccc(O)c2)C1c1cccc([N+](=O)[O-])c1 (centres unmarked) [Test Compound 25, Methyl 3-(3-hydroxyphenyl)-2(E)propenyl 1,4-dihydro-2,6-dimethyl-4-(3-nitrophenyl)-pyridine-3,5-dicarboxylate] | 53 µM | 1.94 µM | – | – | – | – | – | – | –
3 | Methyl 3-(4-hydroxyphenyl)-2(E)-propenyl 1,4-dihydro-2,6-dimethyl-4-(3-nitrophenyl)pyridine-3,5-dicarboxylate [Test Compound 1] | – | – | 60 mg/L | -38.6 mm-Hg | -21.2 mm-Hg | -21.0 mm-Hg | -19.2 mm-Hg | 4.1 mg/L | –
4 | Methyl 3-(4-hydroxyphenyl)-2-propynyl 1,4-dihydro-2,6-dimethyl-4-(3-nitrophenyl)-pyridine-3,5-dicarboxylate [Test Compound 12] | – | – | 13 mg/L | -18.0 mm-Hg | -25.8 mm-Hg | -19.8 mm-Hg | -14.6 mm-Hg | 0.78 mg/L | –
5 | Methyl 4-(4-methylthiophenyl)-3(E)-butenyl 1,4-dihydro-2,6-dimethyl-4-(3-nitrophenyl)-pyridine-3,5-dicarboxylate [Test Compound 15] | – | – | 0.23 mg/L | -75.4 mm-Hg | -66.8 mm-Hg | -20.8 mm-Hg | -10.6 mm-Hg | 0.062 mg/L | -9.6 mm-Hg
